In patent US20180000085A1, “USE OF PICOLINAMIDE COMPOUNDS WITH FUNGICIDAL ACTIVITY” (DOW AGROSCIENCES LLC, priority 2014, published 2018):

Columns and labels:
[1] = tested on: Zymoseptoria tritici; assay: Leaf blotch of wheat (SEPTTR) disease control on wheat seedlings; type: in vivo; set-up: key to SEPTTR 1DP, HV activity at 100 ppm (% control rating) / SEPTTR 3DC, HV activity at 100 ppm (% control rating) / SEPTTR disease control, 1DP / SEPTTR disease control, 3DC / SEPTTR 1DP disease control rating, HV activity / SEPTTR 3DC disease control rating, HV activity / SEPTTR 3DC, LV activity at 125.1 g/H (% Control rating) / SEPTTR 1DP, LV activity at 125.1 g/H (% Control rating) / SEPTTR 1DP disease control rating, LV activity at 125.1 g/H / SEPTTR 3DC disease control rating, LV activity at 125.1 g/H / SEPTTR 3DC disease control rating, HV activity at 100 ppm / SEPTTR 1DP disease control rating, HV activity at 100 ppm / HV activity at 100 ppm SEPTTR 3DC (disease control rating) / HV activity at 100 ppm SEPTTR 1DP (disease control rating) / LV activity at 125.1 g/H SEPTTR 1DP (disease control rating) / LV activity at 125.1 g/H SEPTTR 3DC (disease control rating): A: > 80; B: ≤ 80; C: Not Tested; D: No Activity Observed in the Reported Assay; settings: for SEPTTR 1DP disease control rating, LV activity at 125.1 g/H / SEPTTR 3DC disease control rating, LV activity at 125.1 g/H / SEPTTR 1DP, LV activity at 125.1 g/H (% Control rating) / SEPTTR 3DC, LV activity at 125.1 g/H (% Control rating): low volume application; for SEPTTR 1DP disease control rating, LV activity at 125.1 g/H / SEPTTR 1DP disease control rating, HV activity at 100 ppm: 1 day protectant; for SEPTTR 3DC disease control rating, LV activity at 125.1 g/H / SEPTTR 3DC disease control rating, HV activity at 100 ppm: 3 day curative; for SEPTTR 1DP disease control rating, HV activity / SEPTTR 3DC disease control rating, HV activity: HV application at 100 ppm, wheat leaf blotch; for SEPTTR 1DP disease control rating, HV activity / SEPTTR 1DP, LV activity at 125.1 g/H (% Control rating): 1 Day Protectant; for SEPTTR 3DC disease control rating, HV activity / SEPTTR 3DC, LV activity at 125.1 g/H (% Control rating): 3 Day Curative; for SEPTTR 1DP disease control rating, HV activity at 100 ppm / SEPTTR 3DC disease control rating, HV activity at 100 ppm: high volume application
[2] = tested on: Puccinia triticina; assay: Wheat brown rust (PUCCRT) disease control on wheat seedlings; type: in vivo; set-up: key to PUCCRT 3DC, HV activity at 100 ppm (% control rating) / PUCCRT disease control, 3DC / PUCCRT 1DP disease control rating, HV activity / PUCCRT 3DC disease control rating, HV activity / PUCCRT 3DC, LV activity at 125.1 g/H (% Control rating) / PUCCRT 1DP, LV activity at 125.1 g/H (% Control rating) / PUCCRT 3DC disease control rating, LV activity at 125.1 g/H / PUCCRT 1DP disease control rating, LV activity at 125.1 g/H / PUCCRT 3DC disease control rating, HV activity at 100 ppm / PUCCRT 1DP disease control rating, HV activity at 100 ppm / HV activity at 100 ppm PUCCRT 3DC (disease control rating) / LV activity at 125.1 g/H PUCCRT 1DP (disease control rating) / LV activity at 125.1 g/H PUCCRT 3DC (disease control rating): A: > 80; B: ≤ 80; C: Not Tested; D: No Activity Observed in the Reported Assay; settings: for PUCCRT 1DP disease control rating, LV activity at 125.1 g/H / PUCCRT 3DC disease control rating, LV activity at 125.1 g/H / PUCCRT 1DP, LV activity at 125.1 g/H (% Control rating) / PUCCRT 3DC, LV activity at 125.1 g/H (% Control rating): low volume application; for PUCCRT 1DP disease control rating, LV activity at 125.1 g/H / PUCCRT 1DP disease control rating, HV activity at 100 ppm: 1 day protectant; for PUCCRT 3DC disease control rating, LV activity at 125.1 g/H / PUCCRT 3DC disease control rating, HV activity at 100 ppm: 3 day curative; for PUCCRT 1DP disease control rating, HV activity / PUCCRT 3DC disease control rating, HV activity: HV application at 100 ppm, wheat brown rust; for PUCCRT 1DP disease control rating, HV activity / PUCCRT 1DP, LV activity at 125.1 g/H (% Control rating): 1 Day Protectant; for PUCCRT 3DC disease control rating, HV activity / PUCCRT 3DC, LV activity at 125.1 g/H (% Control rating): 3 Day Curative; for PUCCRT 1DP disease control rating, HV activity at 100 ppm / PUCCRT 3DC disease control rating, HV activity at 100 ppm: high volume application

What does the source list for `COc1ccnc(C(=O)NC(C)C(=O)OC(C)C(Oc2ccccc2)c2cccs2)c1OC(C)=O` (centres unmarked) [Cmpd 690]?
SEPTTR 1DP disease control rating, LV activity at 125.1 g/H [1]: B (≤ 80); SEPTTR 3DC disease control rating, LV activity at 125.1 g/H [1]: B (≤ 80); PUCCRT 1DP disease control rating, LV activity at 125.1 g/H [2]: B (≤ 80); PUCCRT 3DC disease control rating, LV activity at 125.1 g/H [2]: B (≤ 80)

Which results are given for `COc1ccnc(C(=O)N[C@@H](C)C(=O)O[C@@H](C)[C@H](Oc2cccc(F)c2)c2cccc(-c3ccccc3)c2)c1OCOC(C)=O` [Cmpd 874]?
SEPTTR 1DP disease control rating, LV activity at 125.1 g/H [1]: A (> 80); SEPTTR 3DC disease control rating, LV activity at 125.1 g/H [1]: B (≤ 80); PUCCRT 1DP disease control rating, LV activity at 125.1 g/H [2]: A (> 80); PUCCRT 3DC disease control rating, LV activity at 125.1 g/H [2]: B (≤ 80)

For `CCC(CC)[C@@H](OCC(C)C)[C@H](C)OC(=O)[C@H](C)NC(=O)c1nccc(OC)c1O` [Cmpd 354], which “SEPTTR 1DP disease control rating, HV activity” value [1] is on record?
Its value is “B (≤ 80)”.

And the “SEPTTR 3DC disease control rating, HV activity” value [1]?
The value was “B (≤ 80)”.

What about the “PUCCRT 1DP disease control rating, HV activity” value [2] of the same compound?
The value was “B (≤ 80)”.

And the “PUCCRT 3DC disease control rating, HV activity” value [2]?
Its value is “A (> 80)”.

For `CC[C@H](Cc1ccc(F)cc1)[C@@H](Oc1ccccc1)[C@H](C)OC(=O)[C@H](C)NC(=O)c1nccc(OC)c1OCOC(C)=O` [Cmpd 471], which “SEPTTR 1DP, LV activity at 125.1 g/H (% Control rating)” value [1] is on record?
Its value is “A (> 80)”.

And the “SEPTTR 3DC, LV activity at 125.1 g/H (% Control rating)” value [1]?
Its value is “A (> 80)”.

What about the “PUCCRT 1DP, LV activity at 125.1 g/H (% Control rating)” value [2] of the same compound?
The value was “A (> 80)”.

What about the “PUCCRT 3DC, LV activity at 125.1 g/H (% Control rating)” value [2] of the same compound?
Its value is “A (> 80)”.

Which results are given for `COc1ccnc(C(=O)N[C@@H](C)C(=O)O[C@@H](C)[C@H](OCC2CC2)c2cccc(-c3ccccc3)c2)c1OC(C)=O` [Cmpd 875]?
SEPTTR 1DP disease control rating, LV activity at 125.1 g/H [1]: A (> 80); SEPTTR 3DC disease control rating, LV activity at 125.1 g/H [1]: A (> 80); PUCCRT 1DP disease control rating, LV activity at 125.1 g/H [2]: A (> 80); PUCCRT 3DC disease control rating, LV activity at 125.1 g/H [2]: A (> 80)

Which “SEPTTR 1DP, LV activity at 125.1 g/H (% Control rating)” value [1] does the source give for `CCC(CC)[C@@H](Oc1ccc(-c2ccccc2)cc1)[C@H](C)OC(=O)[C@H](C)NC(=O)c1nccc(OC)c1OC(C)=O` [Cmpd 607] here?
The value was “A (> 80)”.

And the “SEPTTR 3DC, LV activity at 125.1 g/H (% Control rating)” value [1]?
Its value is “B (≤ 80)”.

And the “PUCCRT 1DP, LV activity at 125.1 g/H (% Control rating)” value [2]?
The value was “A (> 80)”.

And the “PUCCRT 3DC, LV activity at 125.1 g/H (% Control rating)” value [2]?
Its value is “B (≤ 80)”.

Which “SEPTTR 1DP disease control rating, HV activity” value [1] does the source give for `COc1ccnc(C(=O)N[C@@H](C)C(=O)O[C@@H](C)[C@H](Oc2ccc(Cl)cc2)C(C)C)c1O` [Cmpd 359] here?
Its value is “A (> 80)”.

What about the “SEPTTR 3DC disease control rating, HV activity” value [1] of the same compound?
Its value is “A (> 80)”.

And the “PUCCRT 1DP disease control rating, HV activity” value [2]?
Its value is “A (> 80)”.

What about the “PUCCRT 3DC disease control rating, HV activity” value [2] of the same compound?
Its value is “A (> 80)”.

Which results are given for `COc1ccnc(C(=O)N[C@@H](C)C(=O)O[C@@H](C)[C@H](Oc2ccc(C)cc2Cl)C2CCCC2)c1O` [Cmpd 843, (S)-(1R,2S)-1-(2-chloro-4-methylphenoxy)-1-cyclopentylpropan-2-yl-2-(3-hydroxy-4-methoxypicolinamido)propanoate]?
SEPTTR 1DP disease control rating, HV activity at 100 ppm [1]: D; SEPTTR 3DC disease control rating, HV activity at 100 ppm [1]: B (≤ 80); PUCCRT 1DP disease control rating, HV activity at 100 ppm [2]: D; PUCCRT 3DC disease control rating, HV activity at 100 ppm [2]: D

With `COc1ccnc(C(=O)NC(C)C(=O)OC(C)C(Oc2ccc(C(F)(F)F)cc2)C(C)C)c1O` (centres unmarked) [Cmpd 394] as the compound, how does the “SEPTTR 1DP disease control rating, HV activity” value [1] read?
The value was “A (> 80)”.

And the “SEPTTR 3DC disease control rating, HV activity” value [1]?
The value was “B (≤ 80)”.

What about the “PUCCRT 1DP disease control rating, HV activity” value [2] of the same compound?
The value was “B (≤ 80)”.

And the “PUCCRT 3DC disease control rating, HV activity” value [2]?
The value was “B (≤ 80)”.

With `COc1ccnc(C(=O)NC(C)C(=O)OC(C)C(Oc2cccc3ccccc23)C(C)C)c1O` (centres unmarked) [Cmpd 434] as the compound, how does the “SEPTTR 1DP disease control rating, HV activity” value [1] read?
Its value is “A (> 80)”.

What about the “SEPTTR 3DC disease control rating, HV activity” value [1] of the same compound?
The value was “D”.

What about the “PUCCRT 1DP disease control rating, HV activity” value [2] of the same compound?
The value was “A (> 80)”.

What about the “PUCCRT 3DC disease control rating, HV activity” value [2] of the same compound?
Its value is “D”.

What does the source list for `COc1cc(O[C@H](C2CC2)[C@H](C)OC(=O)[C@H](C)NC(=O)c2nccc(OC)c2O)ccc1Cl` [Cmpd 1000]?
SEPTTR 1DP disease control rating, HV activity at 100 ppm [1]: B (≤ 80); SEPTTR 3DC disease control rating, HV activity at 100 ppm [1]: B (≤ 80); PUCCRT 1DP disease control rating, HV activity at 100 ppm [2]: A (> 80); PUCCRT 3DC disease control rating, HV activity at 100 ppm [2]: A (> 80)
